Reference: article PMC5041077, “Metabolic profile and safety of piperlongumine” (Scientific Reports, 2016)
pIC50, pKi: −log10 of the molar value.

Columns and labels:
CYP1A2 [1] = target: T1, CYP1A2 (Homo sapiens, UniProt P05177); assay: Inhibition of CYP1A2 by piperlongumine (dose-dependent, Ki); type: in vitro ADME
Procedure: In the assay of PPL inhibition in reversible manner, human liver microsomes (0.3 mg/mL final concentration) were the last reagent added into the incubation system to initiate the reaction; after 30 min the reaction was terminated by adding 2 mL of ethyl acetate. Caffeine (64 μM) was added as internal standard and samples were shaken for 10 min at 1500 rpm and centrifuged for 5 min at 2860x g. The organic layers (1.8 mL) were evaporated to dryness under a stream of compressed air at room temperature. The residues were dissolved in 80 μL of the mobile phase and injected in HPLC.
The kinetic parameters were calculated from nonlinear regression using GraphPad Prism Version 3.03 (San Diego, CA, USA). The Intrinsic Clearance (CLint) was obtained considering the Hill coefficient. The Unbounded Intrinsic Clearance (CLuint), Predicted in vivo Clearance (CL) and Hepatic Clearance (CLH) were determined according to Subramarian and Tracy[15] and Austin et al.[17]. Hepatic extraction ratio was calculated according to Kashuba et al.[21]. Dose-dependent inhibition parameters were determined employing SigmaPlot version 12.0 (Chicago, IL, USA). The Lineweaver-Burk plot was used to determine the inhibition profile. […] The parameters kinact and KI in time-dependent inhibition were calculated employing GraphPad Prism Version 3.03.

[2] = Predicted in vivo parameters (in vitro-in vivo scaling); type: in vitro ADME, human
Procedure: In vitro-in vivo scaling has been proposed by some authors. […] PPL microsome and plasma bindings were 23% and 93%, respectively. The predicted parameters, Intrinsic Clearance (CLint), Unbounded Intrinsic Clearance (CLuint), Predicted in vivo Clearance (CL), Hepatic Clearance (CLH) and Hepatic Extraction Ratio (E), are expressed in Table 1.
(§1) The kinetic parameters were calculated from nonlinear regression using GraphPad Prism Version 3.03 (San Diego, CA, USA). The Intrinsic Clearance (CLint) was obtained considering the Hill coefficient. The Unbounded Intrinsic Clearance (CLuint), Predicted in vivo Clearance (CL) and Hepatic Clearance (CLH) were determined according to Subramarian and Tracy[15] and Austin et al.[17]. Hepatic extraction ratio was calculated according to Kashuba et al.[21]. Dose-dependent inhibition parameters were determined employing SigmaPlot version 12.0 (Chicago, IL, USA). The Lineweaver-Burk plot was used to determine the inhibition profile. The second plot of slopes from Lineweaver-Burk plot versus PPL concentrations was utilized to calculate the Ki. The parameters kinact and KI in time-dependent inhibition were calculated employing GraphPad Prism Version 3.03.

[3] = Piperlongumine microsomal protein binding (ultrafiltration); type: in vitro ADME; settings: human, pooled human liver microsomes; PPL 127.70 μM; read-out: fumic (free fraction of the compound in the microsomal incubation)
Procedure: Piperlongumine-protein binding. An in vitro study with a microsomal and plasma protein was carried out using a concentration of PPL approximately corresponding to its S50 (n = 3). The plasma protein binding was evaluated to predict the in vivo clearance, using a plasma protein concentration of 42 mg/mL. The samples were incubated with pooled human liver microsomes at 37 °C as described in section above. The same V0 conditions obtained (protein concentration and incubation time) were applied in this study, but in the absence of the cofactor NADPH. Furthermore, a control sample without protein was analyzed simultaneously for comparison purposes. These mixtures were added to the centrifugal filter device (Microcon YM-30, 30,000 molecular weight cut-off; Millipore Corporation, Bedford, MA, USA) and centrifuged at 21800 x g for 30 min at 37 °C (Hitachi CF16RXII, Himac, Tokyo, Japan). The ultra-filtrate was directly assayed by high-performance liquid chromatography at the conditions previously described.

CYP2C9 = CYP2C9 (Homo sapiens, UniProt P11712); assay: IC50 assay, diclofenac 4'-hydroxylation in HLM
Chain of CYP2C9 (P11712 whole entry, canonical isoform): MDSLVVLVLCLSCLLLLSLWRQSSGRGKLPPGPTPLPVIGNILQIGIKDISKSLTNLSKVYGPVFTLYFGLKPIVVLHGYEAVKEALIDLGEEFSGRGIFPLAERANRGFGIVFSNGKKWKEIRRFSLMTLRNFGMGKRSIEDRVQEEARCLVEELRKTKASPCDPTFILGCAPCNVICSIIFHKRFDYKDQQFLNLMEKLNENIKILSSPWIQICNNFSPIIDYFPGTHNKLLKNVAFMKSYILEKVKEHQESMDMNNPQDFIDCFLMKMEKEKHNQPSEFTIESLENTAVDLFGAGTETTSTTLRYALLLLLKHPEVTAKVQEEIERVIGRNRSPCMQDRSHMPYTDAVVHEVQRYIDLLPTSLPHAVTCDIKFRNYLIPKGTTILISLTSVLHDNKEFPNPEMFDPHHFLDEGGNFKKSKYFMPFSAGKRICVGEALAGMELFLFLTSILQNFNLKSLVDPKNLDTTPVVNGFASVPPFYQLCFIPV

[4] = test system: recombinant human CYP (rhCYP) isoforms; assay: P450 reaction phenotyping by rhCYP isoforms; type: in vitro ADME; settings: specific inhibitors in pooled HLM and recombinant CYP450 isoforms
Procedure: The capacity of selected major human P450 isoforms to metabolize PPL was screened using human recombinant isoenzymes. Briefly, PPL (S50 concentration) was added into a 200 μL incubation mixture containing P450 isoform (50 pmol/mL for CYP3A4, CYP1A2, CYP2C9, 2B6, 2D6 and 2C19; 25 pmol/mL for CYP2C8 and […]; final concentrations), NADPH regeneration system solution A (1.3 mM NADP^+ and 3.3 mM glucose-6-phosphate), NADPH regeneration system solution B (0.4 U/mL glucose-6-phosphate dehydrogenase), potassium phosphate buffer pH 7.4 (100 mM), except for CYP2C9 where the phosphate buffer was substituted by tris buffer pH 7.5 (100 mM), maintaining for 50 min in shaking water bath. In order to enhance the sensibility one sample was pooled from 4 single reactions. PPL metabolites were analyzed by a GC-MS as described previously. The MS peak areas of PPL metabolites were recorded to determine the contributions of the P450 enzymes.
Phenotyping study at 50 min. In order to evaluate the CYP isoforms involved in M4 formation, a similar study as described in the main text was performed, except by the time of incubation of 50 min (Fig. S13).

CYP1A2 [5] = target: T1, CYP1A2; assay: Mechanism-based (time-dependent) inhibition of CYP1A2 by piperlongumine; type: in vitro ADME; design: kinact: dose or concentration left out as unconfirmed; settings: human liver microsomes, pH 7.4, probe phenacetin […] µM
Procedure: Reactions were terminated as described above.
as §1

CYP2D6 = CYP2D6 (Homo sapiens, UniProt P10635); assay: biochemical
Chain of CYP2D6 (P10635 whole entry): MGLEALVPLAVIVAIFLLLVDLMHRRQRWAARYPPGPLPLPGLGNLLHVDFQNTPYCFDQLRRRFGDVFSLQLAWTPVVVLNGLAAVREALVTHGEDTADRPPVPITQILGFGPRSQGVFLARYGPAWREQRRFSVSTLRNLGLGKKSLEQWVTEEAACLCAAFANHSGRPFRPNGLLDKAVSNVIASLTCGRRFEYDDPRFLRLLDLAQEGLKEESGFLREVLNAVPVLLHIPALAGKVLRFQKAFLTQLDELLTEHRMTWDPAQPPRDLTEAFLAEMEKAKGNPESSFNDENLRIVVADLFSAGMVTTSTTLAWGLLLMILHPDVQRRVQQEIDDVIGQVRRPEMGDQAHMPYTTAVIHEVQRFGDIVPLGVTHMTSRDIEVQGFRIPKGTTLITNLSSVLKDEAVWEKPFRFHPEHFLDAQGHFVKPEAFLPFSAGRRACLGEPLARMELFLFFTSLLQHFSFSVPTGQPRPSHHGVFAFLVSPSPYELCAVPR

CYP1A2 [6] = target: T1, CYP1A2; assay: NADPH-dependent inhibition study; type: in vitro ADME; settings: PPL at 1/2 IC50, pre-incubation 0 and 30 min
Procedure: NADPH-dependent Inhibition. The mechanism-based inhibition is characterized by dose-, NADPH- and time-dependent cytochrome P450 oxidoreductase, so the NADPH dependence study was performed. […] NADPH regeneration system was added and the mixture was pre-incubated for 0 and 30 min. […] The mixture was incubated by 30 min and the reaction stopped as described previously. Controls without PPL were performed.

T1 sequence (P05177 whole entry): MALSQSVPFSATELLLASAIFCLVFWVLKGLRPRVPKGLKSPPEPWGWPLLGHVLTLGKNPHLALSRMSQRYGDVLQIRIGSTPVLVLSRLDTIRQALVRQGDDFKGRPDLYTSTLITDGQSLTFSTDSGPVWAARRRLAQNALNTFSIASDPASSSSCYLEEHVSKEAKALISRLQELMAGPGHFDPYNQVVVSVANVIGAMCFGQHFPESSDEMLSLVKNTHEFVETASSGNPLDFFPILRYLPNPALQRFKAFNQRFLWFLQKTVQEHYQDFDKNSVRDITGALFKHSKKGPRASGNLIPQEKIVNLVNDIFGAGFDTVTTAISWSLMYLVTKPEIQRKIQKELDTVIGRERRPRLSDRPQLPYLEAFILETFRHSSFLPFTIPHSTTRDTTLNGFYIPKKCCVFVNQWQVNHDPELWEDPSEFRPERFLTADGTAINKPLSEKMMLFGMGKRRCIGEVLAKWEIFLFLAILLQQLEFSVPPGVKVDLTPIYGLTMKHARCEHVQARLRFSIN

## COc1cc(/C=C/C(=O)N2CCC=CC2=O)cc(OC)c1OC [PPL, Piperlongumine]
CYP1A2 [1]
  pKi: 5.82
CYP1A2 [1]; Lineweaver-Burk plot
  mode of inhibition: competitive type
[2]
  Hepatic Extraction (E): 0.09
[2]; 40 mg microsomes/g liver, 20 g liver/kg body weight
  Predicted in Vivo Clearance (CL): 19.79 mL/min/kg
[2]; corrected for fumic
  Unbounded Intrinsic Clearance (CLuint): 29.84 µL/min/mg
[2]; from HLM kinetic data considering the Hill coefficient
  Intrinsic Clearance (CLint): 22.68 µL/min/mg
[2]; liver blood flow 20 mL/min/kg
  Hepatic Clearance (CLH): 1.89 mL/min/kg
[3]
  fraction unbound at 127.7 μM: 0.76
CYP2C9
  pIC50: < 4.00
[4]
  main CYP isoenzymes involved in PPL metabolism: CYP1A2 and CYP3A4
CYP1A2 [5]
  kinact: 0.000233 s⁻¹
CYP1A2 [5]; read-out: KI (inactivation parameter)
  KI (inactivation): 8 µM
CYP2D6
  pIC50: < 4.00
CYP1A2 [6]
  NADPH dependence of CYP oxidative inhibition: NADPH-dependent
